# Test results reported in patent US20080063628A1, “METHODS TO PROMOTE CELL DIFFERENTIATION” (priority 2006, published 2008).
# System: amniotic fluid-derived cells
# Experiment: Chronic trichostatin A treatment, gene expression by RT-PCR (Example 4)
# Assay type: cell-based, human
# Experimental: Amniotic fluid derived cells were obtained according to the methods described in Example 14. Cells were seeded into a 24-well tissue culture plate at a density of 5000/cm^2 and cultured in AMNIOMAX (Invitrogen) under standard cell culture conditions until confluent. After the cells reached confluency, sample wells were treated with either 500 nM or 1.0 μM trichostatin A diluted in DMSO and medium; control wells were treated with an equivalent concentration of DMSO. At 24 hour intervals over the three day incubation period, cultures underwent a complete medium change, and a fresh dilution of trichostatin A or DMSO was added as appropriate.
# RNA samples were obtained from the treated cultures at 24 hour intervals after the initial addition of trichostatin A or DMSO. The culture medium was removed, cells were washed with PBS, and RLT lysis buffer with P-mercaptoethanol (Qiagen) was added. RNA was purified using the RNeasy Mini Kit (Qiagen); RNA quantity and quality was determined using a spectrophotometer. cDNA was made using the iScript cDNA synthesis kit (BioRad).
# Expression levels of Sox17, HNF-3 beta, Pdx-1, insulin, and glucagon were determined by RT-PCR. Samples of 20 ng cDNA were used in each reaction, performed on an Applied Biosystems 7500 according to the methods described in Example 15. Data were analyzed using the accompanying software. Human pancreas cDNA was included as a control. Results were normalized against GAPDH expression levels. Basal expression of insulin and Sox-17 genes was detectable in untreated amniotic fluid-derived cells. However, expression of glucagon and Pdx-1 genes was not detectable in untreated cells by RT-PCR up to cycle 40. HNF-3 beta was not detected in untreated cells at 24-hours in culture but was weakly expressed at 48 and 72 hours culture time.
# Real-time PCR amplifcation and quantitative analysis. Unless otherwise stated, all reagents were purchased from Applied Biosystems. Real-time PCR reactions were performed using the ABI PRISM™ 7500 Sequence Detection System. TAQMAN™ FAST UNIVERSAL PCR MASTER MIX™ (ABI, CA) was used with 20 ng of reverse transcribed RNA in a total reaction volume of 20 μl. Each cDNA sample was run in duplicate to allow correction of pipetting errors. Primers and FAM-labeled TAQMAN™ probes were used at concentrations of 200 nM. The level of expression for each target gene was normalized using the pre-developed Applied Biosystem's human glyceraldehyde-3-phosphate dehydrogenase (GAPDH) endogenous control kit. Primers and probes were designed using either ABI PRISM PRIMER EXPRESS™ software or a pre-developed ABI gene analysis kit. For each gene, either one of the primers or the probe were designed to be exon-boundary spanning. This eliminated the possibility of the primers/probe binding to any genomic DNA present. The primer and probe sets are listed as follows: Pdx-1 (Hs00426216), Insulin (Hs00355773), glucagon (Hs00174967), and FoxA2 (HNF 3-beta) (Hs00232764). The remaining primers were designed using the PRIMERS program (ABI, CA). After an initial 95° C. incubation for 20 sec, samples were cycled 40 times in two stages: a denaturation step at 95° C. for 3 sec, followed by an annealing/extension step at 60° C. for 30 sec.
# For each primer/probe set, a cycle time value was determined as the cycle number at which the fluorescence intensity of the PCR reaction reached a specific value in the middle of the exponential region of amplification. An increase in expression of a gene corresponded to a decrease in the number of cycles required for the fluorescence intensity to reach this value.
compound,measurement,setting,value
CC(/C=C/C(=O)NO)=C\[C@@H](C)C(=O)c1ccc(N(C)C)cc1 [trichostatin A],HNF-3 beta gene expression,"500 nM renewed daily, 24 hours",+++ (detectable at less than 35 cycles by RT-PCR with std error less than 0.9)
same,Insulin gene expression,"500 nM renewed daily, 24 hours",nd (not detectable at >40 cycles by RT-PCR)
same,PDX-1 gene expression,"500 nM renewed daily, 24 hours",+++ (detectable at less than 35 cycles by RT-PCR with std error less than 0.9)
same,Sox17 gene expression,"500 nM renewed daily, 24 hours",+++ (detectable at less than 35 cycles by RT-PCR with std error less than 0.9)
same,glucagon gene expression,"500 nM renewed daily, 24 hours",+ (detectable between 35 and 40 cycles by RT-PCR)
same,HNF-3b gene expression,"500 nM renewed daily, 48 hours",+++ (detectable at less than 35 cycles by RT-PCR with std error less than 0.9)
same,Insulin gene expression,"500 nM renewed daily, 48 hours",nd (not detectable at >40 cycles by RT-PCR)
same,PDX-1 gene expression,"500 nM renewed daily, 48 hours",+ (detectable between 35 and 40 cycles by RT-PCR)
same,Sox17 gene expression,"500 nM renewed daily, 48 hours",+++ (detectable at less than 35 cycles by RT-PCR with std error less than 0.9)
same,glucagon gene expression,"500 nM renewed daily, 48 hours",+ (detectable between 35 and 40 cycles by RT-PCR)
same,HNF-3b gene expression,"500 nM renewed daily, 72 hours",+++ (detectable at less than 35 cycles by RT-PCR with std error less than 0.9)
same,Insulin gene expression,"500 nM renewed daily, 72 hours",nd (not detectable at >40 cycles by RT-PCR)
same,PDX-1 gene expression,"500 nM renewed daily, 72 hours",+++ (detectable at less than 35 cycles by RT-PCR with std error less than 0.9)
same,Sox17 gene expression,"500 nM renewed daily, 72 hours",+++ (detectable at less than 35 cycles by RT-PCR with std error less than 0.9)
same,glucagon gene expression,"500 nM renewed daily, 72 hours",+ (detectable between 35 and 40 cycles by RT-PCR)
same,HNF-3 beta gene expression,"1 μM renewed daily, 24 hours",+++ (detectable at less than 35 cycles by RT-PCR with std error less than 0.9)
same,Insulin gene expression,"1 μM renewed daily, 24 hours",nd (not detectable at >40 cycles by RT-PCR)
same,PDX-1 gene expression,"1 μM renewed daily, 24 hours",+++ (detectable at less than 35 cycles by RT-PCR with std error less than 0.9)
same,Sox17 gene expression,"1 μM renewed daily, 24 hours",+++ (detectable at less than 35 cycles by RT-PCR with std error less than 0.9)
same,glucagon gene expression,"1 μM renewed daily, 24 hours",+++ (detectable at less than 35 cycles by RT-PCR with std error less than 0.9)
same,HNF-3b gene expression,"1 μM renewed daily, 48 hours",+++ (detectable at less than 35 cycles by RT-PCR with std error less than 0.9)
same,Insulin gene expression,"1 μM renewed daily, 48 hours",nd (not detectable at >40 cycles by RT-PCR)
same,PDX-1 gene expression,"1 μM renewed daily, 48 hours",+++ (detectable at less than 35 cycles by RT-PCR with std error less than 0.9)
same,Sox17 gene expression,"1 μM renewed daily, 48 hours",+++ (detectable at less than 35 cycles by RT-PCR with std error less than 0.9)
same,glucagon gene expression,"1 μM renewed daily, 48 hours",++ (detectable at less than 35 cycles by RT-PCR with std error greater than 0.9)
same,HNF-3b gene expression,"1 μM renewed daily, 72 hours",+++ (detectable at less than 35 cycles by RT-PCR with std error less than 0.9)
same,Insulin gene expression,"1 μM renewed daily, 72 hours",nd (not detectable at >40 cycles by RT-PCR)
same,PDX-1 gene expression,"1 μM renewed daily, 72 hours",+++ (detectable at less than 35 cycles by RT-PCR with std error less than 0.9)
same,Sox17 gene expression,"1 μM renewed daily, 72 hours",+++ (detectable at less than 35 cycles by RT-PCR with std error less than 0.9)
same,glucagon gene expression,"1 μM renewed daily, 72 hours",+++ (detectable at less than 35 cycles by RT-PCR with std error less than 0.9)
